Measured values as given in patent US20210324379A1 (priority 2018, published 2021).

Experiments:
[1] = tested on: ALS models; experiment: Pooled DNA barcoded drug screen of ALS models against 22 small molecules (FIG. 14/18); format: cell-based, yeast; conditions: ten ALS models as mixed pool
Procedure: Y axis represents drugs screened at 10 uM. X axis represents protein modeled and which cell line. WT=Natural expression of drug transporters.

[2] = target: T1, OPTN (Homo sapiens, UniProt Q96CV9); experiment: Manual spot assay of cultures plated in 5-fold dilutions (FIG. 12B); format: cell-based; conditions: consecutive 5-fold dilutions
T1 construct: expressed in transfected cells; host or cells: Saccharomyces cerevisiae, galactose-inducible expression
T1 sequence (Q96CV9 whole entry): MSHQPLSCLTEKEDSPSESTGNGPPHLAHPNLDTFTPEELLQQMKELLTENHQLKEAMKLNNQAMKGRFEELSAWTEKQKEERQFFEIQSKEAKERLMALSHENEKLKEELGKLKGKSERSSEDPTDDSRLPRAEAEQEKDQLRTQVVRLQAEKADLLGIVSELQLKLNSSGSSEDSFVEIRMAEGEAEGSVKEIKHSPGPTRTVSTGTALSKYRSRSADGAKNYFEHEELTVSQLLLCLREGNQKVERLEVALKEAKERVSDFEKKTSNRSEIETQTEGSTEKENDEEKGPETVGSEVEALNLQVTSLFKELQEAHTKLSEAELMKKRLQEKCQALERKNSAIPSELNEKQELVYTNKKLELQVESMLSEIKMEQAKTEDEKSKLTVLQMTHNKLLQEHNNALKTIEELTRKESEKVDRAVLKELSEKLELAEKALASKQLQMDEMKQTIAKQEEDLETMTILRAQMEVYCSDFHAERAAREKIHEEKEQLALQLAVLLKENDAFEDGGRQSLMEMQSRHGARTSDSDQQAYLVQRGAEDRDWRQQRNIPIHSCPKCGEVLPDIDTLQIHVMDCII
Procedure: (§1) Y axis represents drugs screened at 10 uM. X axis represents protein modeled and which cell line. WT=Natural expression of drug transporters. KO=No expression of multidrug transporters PDR1 and PDR3.
(§2) In addition, the presently disclosed screening methods were also applied towards an entirely orthogonal set of proteins. Aggregation-prone proteins are prevalent in numerous eukaryotic life forms and are implicated in a wide range of neurodegenerative diseases. […] In a drug screen of aggregation-prone proteins against 23 drugs, two significant interactions were identified (see FIG. 12A).

[3] = target: T2, TAF15 (Homo sapiens, UniProt Q92804); experiment: as above; format: cell-based; conditions: consecutive 5-fold dilutions
T2 construct: expressed in transfected cells; host or cells: Saccharomyces cerevisiae, galactose-inducible expression
T2 sequence (Q92804 whole entry): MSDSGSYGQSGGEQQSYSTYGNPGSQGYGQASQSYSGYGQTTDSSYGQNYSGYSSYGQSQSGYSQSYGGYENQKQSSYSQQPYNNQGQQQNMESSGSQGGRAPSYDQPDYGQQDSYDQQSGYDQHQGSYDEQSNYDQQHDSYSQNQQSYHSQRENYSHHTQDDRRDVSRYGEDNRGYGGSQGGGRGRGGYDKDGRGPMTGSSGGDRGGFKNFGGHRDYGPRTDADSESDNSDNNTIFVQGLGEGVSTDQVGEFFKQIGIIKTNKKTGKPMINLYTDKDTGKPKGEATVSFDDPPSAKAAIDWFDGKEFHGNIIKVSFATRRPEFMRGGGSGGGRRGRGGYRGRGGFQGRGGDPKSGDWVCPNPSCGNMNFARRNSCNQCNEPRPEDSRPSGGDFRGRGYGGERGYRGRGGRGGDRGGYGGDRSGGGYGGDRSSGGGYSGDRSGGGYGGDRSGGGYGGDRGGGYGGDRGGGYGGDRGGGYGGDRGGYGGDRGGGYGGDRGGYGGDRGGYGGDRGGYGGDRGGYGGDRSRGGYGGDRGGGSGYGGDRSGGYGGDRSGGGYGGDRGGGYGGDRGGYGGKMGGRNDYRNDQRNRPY
Procedure: as §1, §2

[4] = tested on: mcherry; experiment: as above; format: cell-based; conditions: consecutive 5-fold dilutions
Procedure: as §1

[5] = tested on: protease and kinase expressing cells; experiment: Mixed pool barcoded drug screen of protease and kinase expressing yeast (Example 4, FIG. 23, 25); format: cell-based; conditions: FIG. 25A/25C
Excerpt: FIG. 23A-FIG. 23C: Modulation of multidrug exporters enables the testing of multiple drug concentrations in parallel. FIG. 23A: Cells expressing wild type levels of multidrug exporters capture compound known to inhibit HIV protease activity. FIG. 23B: Similar to FIG. 23A, except cells are deficient in the expression of several multidrug exporters. A greater number of previously identified protease and kinase inhibitors are identified when using the drug exporter deficient background. FIG. 23C: The average degree of rescue, measured by the growth recovery of a specific yeast strain expressing a toxic protein, is higher in the knockout background as a result of higher intracellular drug concentrations. […] Furthermore, all of the hits shown are previously validated drug-target interactions. Each of the protein targets of interest expressed in the yeast cells is listed on the x-axis. […] FDR=false discovery rate, and is in relation to enrichment. […]
A single drug screen was performed on a mixed pool of yeast cells harboring various target proteins in order to identify compounds that interfere with each of the tested protein's function. […] In order to test multiple protein targets at a time, a unique DNA barcode was added to each yeast cell, such that when read using next generation sequencing, its abundance within a mixed pool can be quantified. […]

[6] = tested on: wimpy yeast; experiment: Off-target toxicity detection with barcoded wimpy yeast (FIG. 25B, 25D); format: cell-based; conditions: mixed pool
Excerpt: FIG. 25A-FIG. 25D: Wimpy Yeast allow for detection of drugs causing off-target toxicity in barcoded yeast pools. […] FIG. 25C and FIG. 25D: For a subset of drugs with known specific rescue of various proteases and kinases, the present screen is able to capture these effects, and a corresponding decrease in growth of any of the tested wimpy yeast was not observed. For all figures each of the protein targets of interest expressed in the yeast cells or the genes knocked out of their genome is listed on the x-axis. […] FDR=false discovery rate, FDR for FIG. 25A and FIG. 25C are in relation to enrichment while FIG. 25B and FIG. 25D are in relation to depletion.
To detect drugs that have additional pleotropic effects, which may confound the interpretation by appearing to rescue specific models, but in fact was a result of off-target effects rather than on-target enzymatic inhibition, a series of “wimpy” yeast were developed that were engineered to be sensitive to a wide variety of off-target drug toxicities (i.e., perturbations to various biological pathways). These wimpy yeast strains are engineered by using genetic mutation to selectively render the cells hypersensitive to perturbations to various core cellular pathways. […]

[7] = target: T3, HIV protease (Human immunodeficiency virus type 1 group M subtype B, UniProt P03366); format: cell-based; conditions: control cells within ALS mixed pool screen
Excerpt: Ten disease models were probed as a mixed pool across a set of 22 small molecules. […] In these experiments cells containing HIV protease, DNAseI and mCherry served as controls.
Ten ALS models were probed as a mixed pool across a set of 22 small molecules. […] In these experiments, cells containing HIV protease and DNaseI served as positive controls, and cells containing mCherry served as negative controls.

[8] = target: T3, HIV protease; format: cell-based; conditions: for rescue in 3Δ cells compared to wild type cells: Δpdr1 Δpdr3 Δsnq2 (3Δ) vs WT yeast, SC-ura galactose plates with indicated amount of inhibitor (FIG. 9)
Procedure: FIG. 5: Spot assays of Δpdr1 Δpdr3 Δsnq2 yeast expressing pAG426-GAL empty vector or pAG426-GAL-HIV protease. Strains were grown to saturation in SC-ura glucose media and serial dilutions (10-fold) of yeast were plated on SC-ura glucose or SC-ura galactose plates with or without 5 μM lopinavir added.
Cells expressing pAG426-GAL-HIV vectors were transformed into either wild type (WT) or Δpdr1 Δpdr3 Δsnq2 (3Δ) yeast which show a reduced ability to export exogenous small molecules from the cell. Cells were then grown overnight in SC-ura glucose media and spotted at 10-fold serial dilution onto SC-ura galactose plates containing the indicated amount of HIV protease inhibitor (Lopinavir or Saquinavir).

[9] = target: T3, HIV protease; format: cell-based; conditions: drugs screened at 10 μM; MAGeCK analysis; WT and KO cells
Procedure: (§3) Implementation of drug screening platform for proteases of viral or bacterial origin. Y axis represents drugs screened at 10 uM. X axis represents protein modeled and which cell line. WT=Natural expression of drug transporters. KO=No expression of PDR1, PDR3 and SNQ2.
(§4) All drugs were screened at a concentration of 10 μM. Barcoded cells expressing various protein drug targets were grown up individually on agar plates containing SC-ura-leu glucose. These strains were then inoculated into SC-ura-leu with glucose liquid culture media and after overnight growth were mixed together in equal amounts to generate the DNA barcoded library. The DNA barcoded library was then inoculated into SC-ura-leu with galactose liquid culture media with and without small molecule compounds.
(§5) Amplicons for NGS were generated through a two-step PCR protocol. Barcode sequences were amplified with Taq polymerase from genomic DNA preparations with primers anchored in constant regions of the 415-Kan-BC plasmid.

[10] = tested on: EYFP; format: cell-based; conditions: drugs screened at 10 μM; MAGeCK analysis
Procedure: as §3, §4, §5

For `Nc1nc2ccc(OC(F)(F)F)cc2s1` [Riluzole], the “hit among >200 tested ALS gene-drug interactions” value [1] was “potential hits”, the “growth of OPTN expressing cells in the presence of drug” value [2] was “slight growth improvement” and the “growth of TAF15 expressing cells in the presence of drug” value [3] was “decreased growth”. The “growth of mcherry expressing cells in the presence of drug” value [4] was “decreased growth”.
With `CC(=O)[C@]1(O)Cc2c(O)c3c(c(O)c2[C@@H](O[C@H]2C[C@H](N)[C@H](O)[C@H](C)O2)C1)C(=O)c1ccccc1C3=O` [idarubicin] the “rescue of protease and kinase expressing cells (barcode enrichment)” value [5] was “significant rescue” and the “growth of the wimpy yeast models (barcode depletion)” value [6] was “decrease in the growth”.
In the case of `CC(C)CN(C[C@@H](O)[C@H](Cc1ccccc1)NC(=O)O[C@H]1CO[C@H]2OCC[C@H]21)S(=O)(=O)c1ccc(N)cc1` [Darunavir], the “rescue of growth for cells expressing HIV protease” value [7] is reported as “expected rescue of growth”.
In the case of `CC(C)(C)NC(=O)[C@@H]1C[C@@H]2CCCC[C@@H]2CN1C[C@@H](O)[C@H](Cc1ccccc1)NC(=O)[C@H](CC(N)=O)NC(=O)c1ccc2ccccc2n1` [Saquinavir], the “rescue in 3Δ cells compared to wild type cells” value [8] is reported as “significant increases in rescue”.
For `Cc1cccc(C)c1OCC(=O)N[C@@H](Cc1ccccc1)[C@@H](O)C[C@H](Cc1ccccc1)NC(=O)[C@H](C(C)C)N1CCCNC1=O` [Lopinavir], the “rescue in 3Δ cells compared to wild type cells” value [8] was “significant increases in rescue” and the “mitigation of toxicity of yeast expressing HIV protease” value ([8]; Δpdr1 Δpdr3 Δsnq2 yeast, SC-ura galactose plates, 5 μM lopinavir (FIG. 5)) was “toxicity can be mitigated”.
For `COC(=O)N[C@H](C(=O)N[C@@H](Cc1ccccc1)[C@@H](O)CN(Cc1ccc(-c2ccccn2)cc1)NC(=O)[C@@H](NC(=O)OC)C(C)(C)C)C(C)(C)C` [atazanavir], the “barcode enrichment / protein-drug interaction for cells expressing HIV protease” value [9] was “protein-drug interactions”.
`CCCC(CCC)C(=O)O` [valproic acid] was tested, and the “non-specific drug interaction with control-expressing cells” value [10] was “non-specific drug interactions”.
